# Measured values taken from EP0852225B1, “FIBRINOGEN RECEPTOR ANTAGONISTS AND MEDICINAL PREPARATIONS CONTAINING THE SAME AS THE ACTIVE INGREDIENT” (NIPPON STEEL CORPORATION, priority 1996, dated 1997).
# Tested on: not listed separately
# Assay: Oral administration test: time course of the concentration in plasma after oral administration
# Format: in vivo
# Conditions: male SD rats, 10 mg per kg, 30, 60 and 120 minutes after administration, HPLC, mean of three rats
# Method: Male SD rats which had been starved from the previous day were used in this experiment. Two test substances, the compounds of Example 4 and Comparative Example 1, were dissolved in distilled water and administered into the stomach of rats with an oral probe. Each compound was administered to each rat in an amount of 10 mg per kg of body weight. Blood samples were collected 30, 60 and 120 minutes after the administration. The concentration of each compound which was in an active state (i.e., free carboxylic acid) in plasma was determined by HPLC.
# In this Figure, the horizontal axis represents the time after the oral administration and the vertical axis represents the concentration of the active form of each compound in plasma. Each point represents the mean value for three rats and the standard error. […] When the peak values at 30 minutes after the oral administration are compared, the difference was about 10 times as great.
row,SMILES,"concentration of the active form (free carboxylic acid) in plasma, compared with Comparative Example 1"
1,"CCC(NC(=O)c1ccc(C(=N)N2CCOCC2)cc1F)C(C)(C)C(=O)N1CCC(CC(=O)O)CC1 (stereo not drawn) [Example 4, N-{N-(4-(4-morpholinoimidoyl)-2-fluorobenzoyl)-β-ethyl-α,α-dimethyl-β-alanyl)-4-piperidineacetic acid]",significantly higher concentration in plasma than the compound of Comparative Example 1 at every point of determination

# Tested on: Human Platelet Aggregation
# Assay: Measurement of in vitro human platelet aggregation using PRP (collagen-induced, aggregometer light transmittance)
# Format: cell-based
# Conditions: platelet aggregation inhibition in human PRP; collagen final concentration 5 µg/ml; 37°C
# Method: Healthy male volunteers who had not taken any medicines for at least two weeks were selected as subjects. Blood was collected from the forearm vein of each subject on an empty stomach using a #19 needle and a plastic syringe preliminarily charged with 1/10 volume of a 3.8% sodium citrate solution. Immediately after the blood collection, the syringe was shaken gently to mix the blood with the sodium citrate solution. The mixed blood was centrifuged (1100 rpm, 250 g) at room temperature for 15 minutes and the rotation was stopped without applying the brake. Then, the supernatant was collected with a graduated pipette to obtain platelet-rich plasma (PRP). The PRP was stored at room temperature. The blood remaining after the centrifugation was further centrifuged (3500 rpm, 1500 g) at room temperature for 15 minutes and the rotation was stopped without applying the brake. The supernatant was collected to obtain platelet-poor plasma (PPP). After the preparation of the PRP, the number of platelets was counted and only samples containing 2 x 10^8 or more of platelets per milliliter were subjected to the following experiments.
# Platelet aggregation was measured using an 8-channel aggregometer (Hematracer, Nikoh Bioscience, Tokyo, Japan) on the basis of the change in light transmittance through the PRP as follows.
# First, the PPP and PRP (each 200 µl) were placed in glass cuvettes and incubated at 37°C. Thereafter, the transmittance was measured. The transmittance of the PPP was defined as 100% and that of the PRP as 0%.
# Then, 10 µl of physiological saline or a sample-containing physiological saline was added to the PRP and incubated at 37°C for one minute. A collagen solution (10 µl) at a concentration of 100 µg/ml was added to the PRP-containing solution (final concentration: 5 µg/ml) to induce aggregation and thereafter the transmittance was measured over 7 minutes. After the aggregation with collagen and ADP was confirmed, only those samples in which the maximum percent aggregation with collagen was at least 70% were subjected to the experiment.
# The sample was dissolved in physiological saline to give a concentration of 2.2 x 10^-2 M and a 2-fold dilution series was prepared for use in the experiments. The samples insoluble in the physiological saline were dissolved in physiological saline containing 10% DMSO (dimethyl sulfoxide).
# The results were calculated as follows: Percent Aggregation inhibition =(Maximum percent aggregation upon the addition of sample)/(Maximum percent aggregation upon the addtion of physiological saline) [formula]
# A graph was constructed by plotting the percent of aggregation inhibition against the sample concentration and the concentration at which the aggregation was inhibited by 50% (IC50) was calculated from the graph.
row,SMILES,IC50
1,"CCC(NC(=O)c1ccc(C(=N)N2CCOCC2)cc1)C(C)(C)C(=O)N1CCC(CC(=O)O)CC1 (stereo not drawn) [Example 2, N-(N-(9-(4-morpholinoimidoyl)benzoyl)-β-ethyl-α,α-dimethyl-β-alanyl)-4-piperidineacetic acid]",220 nM
2,"CCC(NC(=O)c1ccc(C(=N)N2CCOCC2)cc1F)C(C)(C)C(=O)N1CCC(CC(=O)O)CC1 (stereo not drawn) [Example 4, N-{N-(4-(4-morpholinoimidoyl)-2-fluorobenzoyl)-β-ethyl-α,α-dimethyl-β-alanyl)-4-piperidineacetic acid]",150 nM
3,"CCC(NC(=O)c1ccc(C(=N)N2CCCCC2)cc1F)C(C)(C)C(=O)N1CCC(CC(=O)O)CC1 (stereo not drawn) [Example 8, N-(N-(4-(1-piperidinoimidoyl)-2-fluorobenzoyl)-β-ethyl-α,α-dimethyl-β-alanyl)-4-piperidineacetic acid]",220 nM
4,"CCC(NC(=O)c1ccc(C(=N)N2CCCC2)cc1F)C(C)(C)C(=O)N1CCC(CC(=O)O)CC1 (stereo not drawn) [Example 10, N-(N-(4-(1-pyrrolidinoimidoyl)-2-fluorobenzoyl)-β-ethyl-α,α-dimethyl-β-alanyl)-4-piperidineacetic acid]",87 nM
5,"CCC(NC(=O)c1ccc(C(=N)N2CCC(=O)CC2)cc1F)C(C)(C)C(=O)N1CCC(CC(=O)O)CC1 (stereo not drawn) [Example 12, N-(N-(4-(1-4-piperidonoimidoyl)-2-fluorobenzoyl)-β-ethyl-α,α-dimethyl-β-alanyl)-4-piperidineacetic acid]",120 nM
6,"CCC(NC(=O)c1ccc(C(=N)N2CCC(O)CC2)cc1F)C(C)(C)C(=O)N1CCC(CC(=O)O)CC1 (stereo not drawn) [Example 14, N-(N-(4-(4-hydroxy-1-piperidinoimidoyl)-2-fluorobenzoyl)-β-ethyl-α,α-dimethyl-β-alanyl)-4-piperidineacetic acid]",52 nM
7,"CCC(NC(=O)c1ccc(C(=N)N2CCSC2)cc1F)C(C)(C)C(=O)N1CCC(CC(=O)O)CC1 (stereo not drawn) [Example 16, N-(N-(4-(3-thizolidinoimidoyl)-2-fluorobenzoyl)-β-ethyl-α,α-dimethyl-β-alanyl)-4-piperidineacetic acid]",43 nM
8,"CCC(NC(=O)c1ccc(C(=N)N2CCCCCC2)cc1F)C(C)(C)C(=O)N1CCC(CC(=O)O)CC1 (stereo not drawn) [Example 18, N-(N-(4-(1-hexamethyleneiminoimidoyl)-2-fluorobenzoyl)-β-ethyl-α,α-dimethyl-β-alanyl)-4-piperidineacetic acid]",230 nM
9,"CCC(NC(=O)c1ccc(C(=N)N2CCSCC2)cc1F)C(C)(C)C(=O)N1CCC(CC(=O)O)CC1 (stereo not drawn) [Example 20, N-(N-(4-(N-thiomorpholinoimidoyl)-2-fluorobenzoyl)-β-ethyl-α,α-dimethyl-β-alanyl)-4-piperidineacetic acid]",120 nM
10,"CCC(NC(=O)c1ccc(C(=N)N2CCN(C)CC2)cc1F)C(C)(C)C(=O)N1CCC(CC(=O)O)CC1 (stereo not drawn) [Example 22, N-(N-(4-(4-methyl-1-piperazinoimidoyl)-2-fluorobenzoyl)-β-ethyl-α,α-dimethyl-β-alanyl)-4-piperidineacetic acid]",69 nM
11,"CCC(NC(=O)c1ccc(C(=N)N2CCN(c3ccccc3)CC2)cc1F)C(C)(C)C(=O)N1CCC(CC(=O)O)CC1 (stereo not drawn) [Example 24, N-(N-(4-(4-phenyl-1-piperazinoimidoyl)-2-fluorobenzoyl)-β-ethyl-α,α-dimethyl-β-alanyl)-4-piperidineacetic acid]",57 nM
12,"CCC(NC(=O)c1ccc(C(=N)N2CCN(c3ccc(F)cc3)CC2)cc1F)C(C)(C)C(=O)N1CCC(CC(=O)O)CC1 (stereo not drawn) [Example 26, N-(N-(4-(4-(4-fluorophenyl)-1-piperazinoimidoyl)-2-fluorobenzoyl)-β-ethyl-α,α-dimethyl-β-alanyl)-4-piperidineacetic acid]",87 nM
13,CC(C)(C(=O)N1CCC(CC(=O)O)CC1)C(NC(=O)c1ccc(C(=N)N2CCOCC2)cc1)c1ccccc1 (centres unmarked) [Example 28],240 nM
